Measured values published in ChEMBL document CHEMBL5120950, “Discovery and Mechanistic Study of Mycobacterium tuberculosis PafA Inhibitors” (J Med Chem, 2022).
In brackets after ≈: the same amount, converted by molar mass. Activity calls are given as the source filed them. The rule behind the calls is not given here.

How the values were obtained:
[1] = biological target: T1, Pup--protein ligase (Mycobacterium tuberculosis) (UniProt P9WNU7); experiment: Activation of Mycobacterium tuberculosis PafA expressed in Escherichia coli BL-21(DE3) assessed as pup-ylation using Mtb PanB substrate at 20 uM by SDS-PAGE analysis; settings: filed as activator
T1 sequence (whole entry): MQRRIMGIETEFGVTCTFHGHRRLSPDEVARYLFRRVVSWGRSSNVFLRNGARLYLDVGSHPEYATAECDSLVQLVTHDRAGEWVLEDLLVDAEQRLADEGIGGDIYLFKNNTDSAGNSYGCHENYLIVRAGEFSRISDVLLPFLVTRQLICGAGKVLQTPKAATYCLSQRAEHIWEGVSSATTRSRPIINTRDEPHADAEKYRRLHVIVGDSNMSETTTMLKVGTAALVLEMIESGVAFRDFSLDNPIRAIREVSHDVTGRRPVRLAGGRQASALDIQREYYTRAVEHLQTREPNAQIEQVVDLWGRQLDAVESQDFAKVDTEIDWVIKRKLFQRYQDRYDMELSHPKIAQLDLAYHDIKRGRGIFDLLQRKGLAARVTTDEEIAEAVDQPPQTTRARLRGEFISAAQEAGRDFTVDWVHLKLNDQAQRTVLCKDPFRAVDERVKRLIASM

[2] = biological target: T1, Pup--protein ligase (Mycobacterium tuberculosis); experiment: Activation of Mycobacterium tuberculosis PafA expressed in Escherichia coli BL-21(DE3) assessed as pup-ylation using Mtb InhA substrate at 20 uM by SDS-PAGE analysis; settings: filed as activator
[3] = biological target: T1, Pup--protein ligase (Mycobacterium tuberculosis); experiment: Activation of Mycobacterium tuberculosis PafA expressed in Escherichia coli BL-21(DE3) assessed as pup-ylation using Mtb PknB substrate at 20 uM by SDS-PAGE analysis; settings: filed as activator
[4] = biological target: T1, Pup--protein ligase (Mycobacterium tuberculosis); experiment: Activation of Mycobacterium tuberculosis PafA expressed in Escherichia coli BL-21(DE3) assessed as pup-ylation using Mtb KasA substrate at 20 uM by SDS-PAGE analysis; settings: filed as activator
[5] = biological target: T1, Pup--protein ligase (Mycobacterium tuberculosis); experiment: Activation of Mycobacterium tuberculosis PafA expressed in Escherichia coli BL-21(DE3) assessed as pup-ylation using Mtb DHFR substrate at 20 uM by SDS-PAGE analysis; settings: filed as activator
[6] = biological target: T1, Pup--protein ligase (Mycobacterium tuberculosis); experiment: Inhibition of Mycobacterium tuberculosis PafA expressed in Escherichia coli BL-21(DE3) assessed as inhibition of pup-ylation using Mtb PanB substrate at 20 uM by SDS-PAGE analysis
[7] = biological target: T2, Pup--protein ligase (Corynebacterium glutamicum) (UniProt Q8NQE1); experiment: Inhibition of Corynebacterium glutamicum PafA expressed in Escherichia coli BL-21(DE3) assessed as inhibition of pup-ylation using Mtb PanB substrate at 20 uM by SDS-PAGE analysis
T2 sequence (whole entry): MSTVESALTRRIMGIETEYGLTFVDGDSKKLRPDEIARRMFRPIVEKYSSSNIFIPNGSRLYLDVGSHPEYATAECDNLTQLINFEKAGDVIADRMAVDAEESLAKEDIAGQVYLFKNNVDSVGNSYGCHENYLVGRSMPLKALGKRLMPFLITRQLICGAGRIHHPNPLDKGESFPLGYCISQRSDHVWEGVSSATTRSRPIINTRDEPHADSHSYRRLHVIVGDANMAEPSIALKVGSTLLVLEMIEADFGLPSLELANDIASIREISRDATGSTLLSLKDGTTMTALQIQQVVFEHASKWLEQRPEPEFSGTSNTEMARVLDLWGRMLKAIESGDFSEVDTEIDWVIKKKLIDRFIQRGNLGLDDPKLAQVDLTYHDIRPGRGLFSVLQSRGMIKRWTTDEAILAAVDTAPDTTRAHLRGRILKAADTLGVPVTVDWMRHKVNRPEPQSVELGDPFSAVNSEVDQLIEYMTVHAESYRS

[8] = biological target: T3, Pup--protein ligase (Mycobacterium tuberculosis, UniProt P9WNU7); experiment: Inhibition of Mycobacterium tuberculosis PafA expressed in Escherichia coli BL-21(DE3) assessed as inhibition of pup-ylation using Mtb PanB substrate by SDS-PAGE analysis
T3 sequence (P9WNU7 whole entry): T1 sequence (whole entry)

[9] = biological target: T1, Pup--protein ligase (Mycobacterium tuberculosis); experiment: Binding affinity to Mycobacterium tuberculosis PafA expressed in Escherichia coli BL-21(DE3) assessed as increase in thermal stability at 40 uM incubated for 15 mins at 25 degC followed by incubated at 52 to 72 degC for 5 mins by CESTA analysis
[10] = tested on: Mycobacterium tuberculosis; experiment: Antimycobacterial activity against Mycobacterium tuberculosis H37Ra assessed as inhibition of growth measured after 7 days by microplate reader; type: functional; settings: 168 h, time 7 day
[11] = biological target: T1, Pup--protein ligase (Mycobacterium tuberculosis); experiment: Inhibition of Mycobacterium tuberculosis PafA expressed in Escherichia coli BL-21(DE3) assessed as inhibition of pup-ylation using Mtb InhA substrate at 20 uM by SDS-PAGE analysis
[12] = biological target: T1, Pup--protein ligase (Mycobacterium tuberculosis); experiment: Inhibition of Mycobacterium tuberculosis PafA expressed in Escherichia coli BL-21(DE3) assessed as inhibition of pup-ylation using Mtb KasA substrate at 20 uM by SDS-PAGE analysis
[13] = biological target: T1, Pup--protein ligase (Mycobacterium tuberculosis); experiment: Inhibition of Mycobacterium tuberculosis PafA expressed in Escherichia coli BL-21(DE3) assessed as inhibition of pup-ylation using Mtb PknB substrate at 20 uM by SDS-PAGE analysis
[14] = biological target: T1, Pup--protein ligase (Mycobacterium tuberculosis); experiment: Inhibition of Mycobacterium tuberculosis PafA expressed in Escherichia coli BL-21(DE3) assessed as inhibition of pup-ylation using Mtb DHFR substrate at 20 uM by SDS-PAGE analysis
[15] = biological target: T1, Pup--protein ligase (Mycobacterium tuberculosis); experiment: Binding affinity to Mycobacterium tuberculosis PafA expressed in Escherichia coli BL-21(DE3) assessed as increase in thermal stability by measuring change in melting temperature in at 50 uM by CESTA analysis
[16] = biological target: T4, Pup--protein ligase (Corynebacterium glutamicum, UniProt Q8NQE1); experiment: Activation of Corynebacterium glutamicum PafA expressed in Escherichia coli BL-21(DE3) assessed as pup-ylation using Mtb PanB substrate by SDS-PAGE analysis
T4 sequence (Q8NQE1 whole entry): T2 sequence (whole entry)

[17] = biological target: T4, Pup--protein ligase; experiment: Activation of Corynebacterium glutamicum PafA expressed in Escherichia coli BL-21(DE3) assessed as pup-ylation using Mtb KasA substrate by SDS-PAGE analysis

SMILES: COCC[n+]1c2c(n(Cc3cnccn3)c1C)C(=O)c1ccccc1C2=O
- Activity [1]: Active
- Activity [2]: Active
- Activity [3]: Active
- Activity [4]: Active
- Activity [5]: Active

SMILES: Oc1ccc(Cl)cc1Sc1cc(Cl)cc(Cl)c1
- inhibition [6]: Active

SMILES: Oc1ccccc1Sc1cc(Cl)cc(Cl)c1
- inhibition [6]: Active

SMILES: Oc1ccccc1Sc1cc(Cl)cc(Cl)c1Cl
- inhibition [6]: Active

SMILES: O=C(O)/C=C/c1ccc(-c2ccc(O)c(C34CC5CC(CC(C5)C3)C4)c2)cc1 [ADAROTENE]
- inhibition [6]: Active
- inhibition [7]: Active
- IC50 [8]: 17.9 µM
- Activity [9]: Active
- MIC90 [10]: 164 µM (≈ 61.4 µg/mL)
- inhibition [11]: Active
- inhibition [12]: Active
- inhibition [13]: Active
- inhibition [14]: Active
- ΔTm [15]: 2.5 °C

SMILES: Oc1c(Cl)cc(Cl)cc1Sc1cc(Cl)cc(Cl)c1O [BITHIONOL]
- inhibition [6]: Active
- IC50 [8]: 15.9 µM
- MIC90 [10]: 89.9 µM (≈ 32 µg/mL)

SMILES: COCCn1c2c([n+](Cc3cnccn3)c1C)C(=O)c1ccccc1C2=O [SEPANTRONIUM]
- EC50 [16]: 1.7 µM
- EC50 [17]: 2 µM
